Earlier results, collected in patent US20250356959A1, “Toxicity Prediction Of Compounds In Cellular Structures” (Sanofi, priority 2022, published 2025).

Tested on: liver cells
Settings: positive control, 60 micro moles

Compound: CN(C)CCCN1c2ccccc2Sc2ccc(Cl)cc21 [CPZ, Chlorpromazine]
- known toxic effect of reference compound: toxic to liver cells and triggers cholestasis
